The values that follow come from patent US12472185B2, “Methods for killing antibiotic tolerant bacteria” (THE PENN STATE RESEARCH FOUNDATION, priority 2020, dated 2025).

One experiment has as its system S. aureus ATCC29213. The note with it: from Chowdhury, Wood, et al., 2016; cited from earlier work.
The next experiment relates to E. coli K-12 BW25113. The conditions noted are these: from Chowdhury, Wood, et al., 2016; cited from earlier work.
In experiment [1] the test system is P. aeruginosa PA14 exponentially-growing cells. Briefly: Killing at one MIC in PBS, NPIMA compared with cisplatin. Format: cell-based, Pseudomonas aeruginosa. The source says: FIG. 7. NPIMA compared width cisplatin for killing Pseudomonas aeruginosa, Escherichia coli, and Staphylococcus aureus. Survival of exponentially-growing cells of P. aeruginosa PA14 (a), E. coli (b), and S. aureus (c) treated with one MIC of NPIMA (♦) and cisplatin (●) for 3 hr in PBS. DMSO (▴) and NaClO4 (*) were used as a negative controls. MIC, minimum inhibitory concentration; NPIMA, 5-nitro-3-phenyl-1H-indol-2-yl-methylamine hydrochloride.
For bacterial viability, cells were washed twice with 0.85% NaCl, resuspended in 1×PBS, and cell counts were determined via the drop assay (Donegan, Matyac, Seidler, & Porteous, 1991). For human cell viability, pre-cultured human cancer HT-29 cells were dispensed in 98 μl in 96-well plates with approximately 5,000 cells/well. NPIMA was added (2 μl) to produce concentrations of 5, 10, 100, and 200 μM. For controls, Triton X-100 (positive control) and DMSO (negative solvent control), were used, and the medium was used for background. Plates were incubated in a humidified incubator (37° C., 5% CO2) for 24 hr. Cell viability was determined via a cell counting kit (CCK-8 Kit, ab228554; Abcam), and cytotoxicity was determined via the lactate dehydrogenase (LDH) assay (LDH Assay Kit, MK401; Takara).

A further experiment has as its system P. aeruginosa PA14. The conditions noted are these: from Chowdhury, Wood, et al., 2016; cited from earlier work.

SMILES strings stand for the structures.

Take `N.N.[Cl][Pt][Cl]` [cisplatin]: the figures for the MIC in the experiment with S. aureus ATCC29213, with E. coli K-12 BW25113 and with P. aeruginosa PA14 were 1 mM, 0.3 mM and 0.15 mM, respectively. Further, the “time to eradicate P. aeruginosa cells” value in experiment [1] was determined as 1 h.
